Numbered stars: 1 amine (or outer) side, 2 acyl side, 3 side chain; on linkers, the order of the positions; unused ones are H or OH. Bridge positions count the residues as written; N and C are the ends. Square brackets hold non-standard residues; d marks the D form. Side chains are listed from the residue outwards. Peptide text beside a SMILES is read from it. * marks the point of attachment. C20 diacid = O=C(O)CCCCCCCCCCCCCCCCCCC(=O)*; C18 diacid = O=C(O)CCCCCCCCCCCCCCCCC(=O)*; γGlu = O=C(O)[C@H](CCC(=O)[*:2])N[*:1]; Hyp = O=C(O)[C@@H]1C[C@@H](O)CN1; AEEA = NCCOCCOCC(=O)O
target: T1, human amylin receptor (Homo sapiens, UniProt O60896+P30988); assay: Luciferase assay of amylin derivatives in amylin receptor/CRE-luc CHO cell line; format: cell-based; settings: CHO-K1/Ga15/AMY3 CRE-luc cells, 24 hours incubation, F12 medium containing 10% FBS; read-out: EC50
T1 construct: host or cells: CHO-K1/Ga15/AMY3 cells, further stably transfected with a CRE-luciferase plasmid
T1 sequence (P30988 25-474): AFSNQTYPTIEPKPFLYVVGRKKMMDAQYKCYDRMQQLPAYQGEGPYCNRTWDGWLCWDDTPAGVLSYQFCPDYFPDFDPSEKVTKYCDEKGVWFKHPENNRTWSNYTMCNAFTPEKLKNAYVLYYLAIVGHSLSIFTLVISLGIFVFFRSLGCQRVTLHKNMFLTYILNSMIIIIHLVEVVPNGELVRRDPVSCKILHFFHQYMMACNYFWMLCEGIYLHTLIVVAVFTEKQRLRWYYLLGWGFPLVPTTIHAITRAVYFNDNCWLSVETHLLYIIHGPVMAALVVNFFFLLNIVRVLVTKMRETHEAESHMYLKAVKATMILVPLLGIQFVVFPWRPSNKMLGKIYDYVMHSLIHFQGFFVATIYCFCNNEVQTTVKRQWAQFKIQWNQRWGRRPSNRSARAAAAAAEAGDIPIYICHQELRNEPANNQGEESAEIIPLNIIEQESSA
T1 sequence (O60896 24-148 partner): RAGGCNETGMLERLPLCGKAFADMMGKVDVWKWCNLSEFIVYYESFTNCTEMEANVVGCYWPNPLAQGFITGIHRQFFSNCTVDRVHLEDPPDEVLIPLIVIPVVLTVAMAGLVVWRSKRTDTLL
Experimental: The experiment was intended to detect the activity or efficacy of the amylin derivatives on a human amylin receptor in vitro by luciferase assay.
50 μL of growth medium (F12 medium containing 10% FBS) was added into each well of a white 96-well plate, and the stably transfected amylin/CRE-lue CHO cells were inoculated into the white 96-well plate at a density of about 20,000 cells/well for activity determination.

Row | EC50 [pM] | SMILES
1 | 29 | CC[C@H](C)[C@H](NC(=O)[C@@H]1CCCN1C(=O)CNC(=O)[C@H](Cc1ccccc1)NC(=O)[C@H](CC(N)=O)NC(=O)[C@H](CC(N)=O)NC(=O)[C@H](CO)NC(=O)[C@H](CO)NC(=O)[C@H](Cc1c[nH]cn1)NC(=O)[C@@H](NC(=O)[C@H](CC(C)C)NC(=O)[C@H](Cc1ccccc1)NC(=O)[C@H](CC(N)=O)NC(=O)[C@H](C)NC(=O)[C@H](CC(C)C)NC(=O)[C@H](CCCNC(=N)N)NC(=O)[C@H](CCC(N)=O)NC(=O)[C@@H](NC(=O)[C@H](C)NC(=O)[C@@H]1CSSC[C@H](NC(=O)[C@H](CCCCN)NC(=O)CC[C@H](NC(=O)CCCCCCCCCCCCCCCCCCC(=O)O)C(=O)O)C(=O)N[C@@H](CC(N)=O)C(=O)N[C@@H]([C@@H](C)O)C(=O)N[C@@H](C)C(=O)N[C@@H]([C@@H](C)O)C(=O)N1)[C@@H](C)O)C(C)C)C(=O)N[C@@H](CC(C)C)C(=O)N1CCC[C@H]1C(=O)N1CCC[C@H]1C(=O)N[C@H](C(=O)N[C@@H](CC(N)=O)C(=O)N[C@H](C(=O)NCC(=O)N[C@@H](CO)C(=O)N[C@@H](CC(N)=O)C(=O)N[C@H](C(=O)N[C@@H](Cc1ccc(O)cc1)C(N)=O)[C@@H](C)O)C(C)C)[C@@H](C)O [PD156] ({C20 diacid-γGlu}-KCNTATCATQRLANFLVHSSNNFGPILPPTNVGSNTY-NH2; disulfide 2-7 (inferred))
2 | 37 | CC[C@H](C)[C@H](NC(=O)[C@@H]1CCCN1C(=O)[C@H](Cc1c[nH]cn1)NC(=O)[C@H](CC(C)C)NC(=O)[C@H](CC(N)=O)NC(=O)[C@H](CC(N)=O)NC(=O)[C@H](CO)NC(=O)[C@H](CO)NC(=O)[C@H](Cc1c[nH]cn1)NC(=O)[C@H](CCCNC(=N)N)NC(=O)[C@H](CC(C)C)NC(=O)[C@H](Cc1ccccc1)NC(=O)[C@H](CC(=O)O)NC(=O)[C@H](C)NC(=O)[C@H](CC(C)C)NC(=O)[C@H](CCCNC(=N)N)NC(=O)[C@H](CCC(N)=O)NC(=O)[C@@H](NC(=O)[C@H](C)NC(=O)[C@@H]1CSSC[C@H](NC(=O)[C@H](CCCCN)NC(=O)CC[C@H](NC(=O)CCCCCCCCCCCCCCCCCCC(=O)O)C(=O)O)C(=O)N[C@@H](CC(N)=O)C(=O)N[C@@H]([C@@H](C)O)C(=O)N[C@@H](C)C(=O)N[C@@H]([C@@H](C)O)C(=O)N1)[C@@H](C)O)C(=O)N[C@@H](CC(C)C)C(=O)N1CCC[C@H]1C(=O)N1CCC[C@H]1C(=O)N[C@H](C(=O)N[C@@H](CC(N)=O)C(=O)N[C@H](C(=O)NCC(=O)N[C@@H](CO)C(=O)N[C@@H](CC(N)=O)C(=O)N[C@H](C(=O)N1C[C@H](O)C[C@H]1C(N)=O)[C@@H](C)O)C(C)C)[C@@H](C)O [PD159] ({C20 diacid-γGlu}-KCNTATCATQRLADFLRHSSNNLHPILPPTNVGSNT[Hyp]-NH2; disulfide 2-7)
3 | 35 | CC[C@H](C)[C@H](NC(=O)[C@@H]1CCCN1C(=O)[C@H](Cc1c[nH]cn1)NC(=O)[C@H](CC(C)C)NC(=O)[C@H](CC(N)=O)NC(=O)[C@H](CC(N)=O)NC(=O)[C@H](CO)NC(=O)[C@H](CO)NC(=O)[C@H](Cc1c[nH]cn1)NC(=O)[C@H](CCCNC(=N)N)NC(=O)[C@H](CC(C)C)NC(=O)[C@H](Cc1ccccc1)NC(=O)[C@H](CC(=O)O)NC(=O)[C@H](C)NC(=O)[C@H](CC(C)C)NC(=O)[C@H](CCCNC(=N)N)NC(=O)[C@H](CCC(N)=O)NC(=O)[C@@H](NC(=O)[C@H](C)NC(=O)[C@@H]1CSSC[C@H](NC(=O)[C@H](CCCCN)NC(=O)CC[C@H](NC(=O)CCCCCCCCCCCCCCCCCCC(=O)O)C(=O)O)C(=O)N[C@@H](CC(N)=O)C(=O)N[C@@H]([C@@H](C)O)C(=O)N[C@@H](C)C(=O)N[C@@H]([C@@H](C)O)C(=O)N1)[C@@H](C)O)C(=O)N[C@@H](CC(C)C)C(=O)N1CCC[C@H]1C(=O)N1CCC[C@H]1C(=O)N[C@H](C(=O)N[C@@H](CC(N)=O)C(=O)N[C@H](C(=O)NCC(=O)N[C@@H](CO)C(=O)N[C@@H](CC(N)=O)C(=O)N[C@H](C(=O)N1CCC[C@H]1C(N)=O)[C@@H](C)O)C(C)C)[C@@H](C)O [PD162] ({C20 diacid-γGlu}-KCNTATCATQRLADFLRHSSNNLHPILPPTNVGSNTP-NH2; disulfide 2-7 (inferred))
4 | 84 | CC[C@H](C)[C@H](NC(=O)[C@@H]1CCCN1C(=O)[C@@H]1CCCN1C(=O)[C@H](CC(C)C)NC(=O)[C@H](CC(N)=O)NC(=O)[C@H](CC(N)=O)NC(=O)[C@H](CO)NC(=O)[C@H](CO)NC(=O)[C@H](Cc1c[nH]cn1)NC(=O)[C@H](CCCNC(=N)N)NC(=O)[C@H](CC(C)C)NC(=O)[C@H](Cc1ccccc1)NC(=O)[C@H](CC(=O)O)NC(=O)[C@H](C)NC(=O)[C@H](CC(C)C)NC(=O)[C@H](CCCNC(=N)N)NC(=O)[C@H](CCC(N)=O)NC(=O)[C@@H](NC(=O)[C@H](C)NC(=O)[C@@H]1CSSC[C@H](NC(=O)[C@H](CCCCN)NC(=O)CC[C@H](NC(=O)CCCCCCCCCCCCCCCCCCC(=O)O)C(=O)O)C(=O)N[C@@H](CC(N)=O)C(=O)N[C@@H]([C@@H](C)O)C(=O)N[C@@H](C)C(=O)N[C@@H]([C@@H](C)O)C(=O)N1)[C@@H](C)O)C(=O)N[C@@H](CC(C)C)C(=O)N1CCC[C@H]1C(=O)N1CCC[C@H]1C(=O)N[C@H](C(=O)N[C@@H](CC(N)=O)C(=O)N[C@H](C(=O)NCC(=O)N[C@@H](CO)C(=O)N[C@@H](CC(N)=O)C(=O)N[C@H](C(=O)N1CCC[C@H]1C(N)=O)[C@@H](C)O)C(C)C)[C@@H](C)O [PD163] ({C20 diacid-γGlu}-KCNTATCATQRLADFLRHSSNNLPPILPPTNVGSNTP-NH2; disulfide 2-7 (inferred))

Continued, molecule first:

Row | SMILES | EC50 [pM]
5 | CC[C@H](C)[C@H](NC(=O)[C@H](CCCCNC(=O)COCCOCCNC(=O)CC[C@H](NC(=O)CCCCCCCCCCCCCCCCC(=O)O)C(=O)O)NC(=O)CNC(=O)[C@H](CC(C)C)NC(=O)[C@H](CC(N)=O)NC(=O)[C@H](CC(N)=O)NC(=O)[C@H](CO)NC(=O)[C@H](CO)NC(=O)[C@H](Cc1c[nH]cn1)NC(=O)[C@H](CCCNC(=N)N)NC(=O)[C@H](CC(C)C)NC(=O)[C@H](Cc1ccccc1)NC(=O)[C@H](CC(=O)O)NC(=O)[C@H](C)NC(=O)[C@H](CC(C)C)NC(=O)[C@H](CCCNC(=N)N)NC(=O)[C@H](CCC(N)=O)NC(=O)[C@@H](NC(=O)[C@H](C)NC(=O)[C@@H]1CSSC[C@H](NC(=O)[C@@H](N)CCCNC(=N)N)C(=O)N[C@@H](CC(N)=O)C(=O)N[C@@H]([C@@H](C)O)C(=O)N[C@@H](C)C(=O)N[C@@H]([C@@H](C)O)C(=O)N1)[C@@H](C)O)C(=O)N[C@@H](CC(C)C)C(=O)N1CCC[C@H]1C(=O)N1CCC[C@H]1C(=O)N[C@H](C(=O)N[C@@H](CC(N)=O)C(=O)N[C@H](C(=O)NCC(=O)N[C@@H](CO)C(=O)N[C@@H](CC(N)=O)C(=O)N[C@H](C(=O)N1C[C@H](O)C[C@H]1C(N)=O)[C@@H](C)O)C(C)C)[C@@H](C)O [PD121] (H-RCNTATCATQRLADFLRHSSNNLGK([AEEA-γGlu-C18 diacid])ILPPTNVGSNT[Hyp]-NH2; disulfide 2-7) | 18
6 | CC[C@H](C)[C@H](NC(=O)[C@@H]1CCCN1C(=O)CNC(=O)[C@H](CC(C)C)NC(=O)[C@H](CC(N)=O)NC(=O)[C@H](CC(N)=O)NC(=O)[C@H](CO)NC(=O)[C@H](CO)NC(=O)[C@H](Cc1c[nH]cn1)NC(=O)[C@H](CCCNC(=N)N)NC(=O)[C@H](CC(C)C)NC(=O)[C@H](Cc1ccccc1)NC(=O)[C@H](CC(=O)O)NC(=O)[C@H](C)NC(=O)[C@H](CC(C)C)NC(=O)[C@H](CCCNC(=N)N)NC(=O)[C@H](CCC(N)=O)NC(=O)[C@@H](NC(=O)[C@H](C)NC(=O)[C@@H]1CSSC[C@H](NC(=O)[C@H](CCCCN)NC(=O)COCCOCCNC(=O)CC[C@H](NC(=O)CCCCCCCCCCCCCCCCCCC(=O)O)C(=O)O)C(=O)N[C@@H](CC(N)=O)C(=O)N[C@@H]([C@@H](C)O)C(=O)N[C@@H](C)C(=O)N[C@@H]([C@@H](C)O)C(=O)N1)[C@@H](C)O)C(=O)N[C@@H](CC(C)C)C(=O)N1CCC[C@H]1C(=O)N1CCC[C@H]1C(=O)N[C@H](C(=O)N[C@@H](CC(N)=O)C(=O)N[C@H](C(=O)NCC(=O)N[C@@H](CO)C(=O)N[C@@H](CC(N)=O)C(=O)N[C@H](C(=O)N1C[C@H](O)C[C@H]1C(N)=O)[C@@H](C)O)C(C)C)[C@@H](C)O [PD122] ({C20 diacid-γGlu-AEEA}-KCNTATCATQRLADFLRHSSNNLGPILPPTNVGSNT[Hyp]-NH2; disulfide 2-7) | 48
7 | CC[C@H](C)[C@H](NC(=O)[C@@H]1CCCN1C(=O)CNC(=O)[C@H](CC(C)C)NC(=O)[C@H](CC(N)=O)NC(=O)[C@H](CC(N)=O)NC(=O)[C@H](CO)NC(=O)[C@H](CO)NC(=O)[C@H](Cc1c[nH]cn1)NC(=O)[C@H](CCCNC(=N)N)NC(=O)[C@H](CC(C)C)NC(=O)[C@H](Cc1ccccc1)NC(=O)[C@H](CC(=O)O)NC(=O)[C@H](C)NC(=O)[C@H](CC(C)C)NC(=O)[C@H](CCCNC(=N)N)NC(=O)[C@H](CCC(N)=O)NC(=O)[C@@H](NC(=O)[C@H](C)NC(=O)[C@@H]1CSSC[C@H](NC(=O)[C@H](CCCCN)NC(=O)CC[C@H](NC(=O)CCCCCCCCCCCCCCCCC(=O)O)C(=O)O)C(=O)N[C@@H](CC(N)=O)C(=O)N[C@@H]([C@@H](C)O)C(=O)N[C@@H](C)C(=O)N[C@@H]([C@@H](C)O)C(=O)N1)[C@@H](C)O)C(=O)N[C@@H](CC(C)C)C(=O)N1CCC[C@H]1C(=O)N1CCC[C@H]1C(=O)N[C@H](C(=O)N[C@@H](CC(N)=O)C(=O)N[C@H](C(=O)NCC(=O)N[C@@H](CO)C(=O)N[C@@H](CC(N)=O)C(=O)N[C@H](C(=O)N1C[C@H](O)C[C@H]1C(N)=O)[C@@H](C)O)C(C)C)[C@@H](C)O [PD124] ({C18 diacid-γGlu}-KCNTATCATQRLADFLRHSSNNLGPILPPTNVGSNT[Hyp]-NH2; disulfide 2-7) | 8
